The record followed here is patent US8309734B2 (Hoffmann-La Roche Inc., priority 2008, dated 2012).

This experiment concerns the target T1, human GPBAR1 receptor (Homo sapiens, UniProt Q8TDU6).
T1 construct: expressed in transfected cells
T1 sequence (Q8TDU6 1-330): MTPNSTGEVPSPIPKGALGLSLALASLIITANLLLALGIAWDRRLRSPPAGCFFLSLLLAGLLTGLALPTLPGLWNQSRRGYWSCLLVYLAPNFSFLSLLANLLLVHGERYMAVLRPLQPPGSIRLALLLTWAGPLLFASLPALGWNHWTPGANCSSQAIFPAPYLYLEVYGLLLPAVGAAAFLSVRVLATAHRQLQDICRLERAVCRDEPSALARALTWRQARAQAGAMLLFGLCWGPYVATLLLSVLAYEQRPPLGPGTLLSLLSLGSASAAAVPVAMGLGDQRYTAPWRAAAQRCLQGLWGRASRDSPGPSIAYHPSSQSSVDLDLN
As to the kind of experiment: functional cAMP assay in CHO-dhfr(minus) cells expressing human GPBAR1 receptors. It is filed as cell-based. The conditions noted are these: cAMP increase (TR-FRET) in CHO-dhfr(minus) cells expressing human GPBAR1; compounds incubated 30 min at 30° C. Here is the method:
The final clone was verified by DNA sequence analysis. The plasmid was transfected into CHO cells deficient in dihydrofolate reductase activity (CHO-dhfr-) using Lipofectamine plus (Invitrogen). Clones were isolated in limited dilution conditions and identified by activities in the cAMP assay using lithocholic acid as agonist.
The growth medium was exchanged with Krebs Ringer Bicarbonate buffer with 1 mM IBMX and incubated at 30° C. for 30 mM. Compounds were added to a final assay volume of 100 μl and incubated for 30 min at 30° C. […] The time-resolved energy transfer is measured by a TRF reader (Evotec Technologies GmbH, Hamburg Germany), equipped with a ND:YAG laser as excitation source. The plate is measured twice with the excitation at 355 nm and at the emission with a delay of 100 ns and a gate of 100 ns, total exposure time 10s at 730 (bandwith 30 nm) or 645 nm (bandwith 75 nm), respectively.
EC50 values were determined using Activity Base analysis (ID Business Solution, Limited). […] Specificity for GPBAR1 was tested in non-transfected CHO cells in the same assay as above.
For orientation: Cyclic AMP is a second messenger, typically raised through Gs and lowered through Gi signalling.
As a reminder, the EC50 is the concentration at which the effect is half-maximal. High values mean a less potent agent, low ones a more potent agent. The compound `COc1ncccc1N(C)C(=O)c1cccnc1Oc1cc(Cl)ccc1Cl` [Example 48, 2-(2,5-Dichloro-phenoxy)-N-(2-methoxy-pyridin-3-yl)-N-methyl-nicotinamide] showed an EC50 of 66 nM. Under `Cc1c(Cl)cccc1N(C)C(=O)c1cccnc1Oc1cc(Cl)ccc1Cl` [Example 49, N-(3-Chloro-2-methyl-phenyl)-2-(2,5-dichloro-phenoxy)-N-methyl-nicotinamide] stands 173 nM.

Take `Cc1ccc(Cl)cc1N(C)C(=O)c1cccnc1Oc1cc(Cl)ccc1Cl` [Example 50, N-(5-Chloro-2-methyl-phenyl)-2-(2,5-dichloro-phenoxy)-N-methyl-nicotinamide]: the response was half-maximal at 631 nM (EC50).

As for `Cc1cccc(Cl)c1N(C)C(=O)c1cccnc1Oc1cc(Cl)ccc1Cl` [Example 51, N-(2-Chloro-6-methyl-phenyl)-2-(2,5-dichloro-phenoxy)-N-methyl-nicotinamide], a half-maximal response (EC50) required 59 nM.

As for `Cc1cccc(C)c1N(C)C(=O)c1cccnc1Oc1cc(Cl)ccc1Cl` [Example 52, 2-(2,5-Dichloro-phenoxy)-N-(2,6-dimethyl-phenyl)-N-methyl-nicotinamide], a half-maximal effect (EC50) was put at 116 nM. `COc1cccc(C)c1N(C)C(=O)c1cccnc1Oc1cc(Cl)ccc1Cl` [Example 53, 2-(2,5-Dichloro-phenoxy)-N-(2-methoxy-6-methyl-phenyl)-N-methyl-nicotinamide] yielded an EC50 of 321 nM. For the compound `COc1ccc(F)cc1N(C)C(=O)c1cccnc1Oc1cc(Cl)ccc1Cl` [Example 54, 2-(2,5-Dichloro-phenoxy)-N-(5-fluoro-2-methoxy-phenyl)-N-methyl-nicotinamide], the response was half-maximal at 35 nM (EC50). As for `COc1ccc(Cl)cc1N(C)C(=O)c1cccnc1Oc1cc(Cl)ccc1Cl` [Example 55, N-(5-Chloro-2-methoxy-phenyl)-2-(2,5-dichloro-phenoxy)-N-methyl-nicotinamide], the EC50 turned out to be 641 nM.

With `Cc1cc(Cl)ccc1N(C)C(=O)c1cccnc1Oc1cc(Cl)ccc1Cl` [Example 56, N-(4-Chloro-2-methyl-phenyl)-2-(2,5-dichloro-phenoxy)-N-methyl-nicotinamide], it took 1390 nM to reach a half-maximal effect (EC50).

On to `Cc1cccc(N(C)C(=O)c2cccnc2Oc2cc(Cl)ccc2Cl)c1C` [Example 57, 2-(2,5-Dichloro-phenoxy)-N-(2,3-dimethyl-phenyl)-N-methyl-nicotinamide], for which it took 385 nM to reach a half-maximal effect (EC50). As for `Cc1ccc(N(C)C(=O)c2cccnc2Oc2cc(Cl)ccc2Cl)c(C)c1` [Example 58, 2-(2,5-Dichloro-phenoxy)-N-(2,4-dimethyl-phenyl)-N-methyl-nicotinamide], the figure is 758 nM; as for `COc1ccc(C)cc1N(C)C(=O)c1cccnc1Oc1cc(Cl)ccc1Cl` [Example 59, 2-(2,5-Dichloro-phenoxy)-N-(2-methoxy-5-methyl-phenyl)-N-methyl-nicotinamide], 1550 nM; as for `COc1cccc(OC)c1N(C)C(=O)c1cccnc1Oc1cc(Cl)ccc1Cl` [Example 60, 2-(2,5-Dichloro-phenoxy)-N-(2,6-dimethoxy-phenyl)-N-methyl-nicotinamide], 1550 nM. In turn, `Cc1cc(Cl)ncc1N(C)C(=O)c1cccnc1Oc1cc(Cl)ccc1Cl` [Example 61, N-(6-Chloro-4-methyl-pyridin-3-yl)-2-(2,5-dichloro-phenoxy)-N-methyl-nicotinamide] displayed an EC50 of 1980 nM. Regarding `CN(C(=O)c1cccnc1Oc1cc(Cl)ccc1Cl)c1ccccc1C#N` [Example 62, N-(2-Cyano-phenyl)-2-(2,5-dichloro-phenoxy)-N-methyl-nicotinamide], the response was half-maximal at 820 nM (EC50). As for `CN(C(=O)c1cccnc1Oc1cc(Cl)ccc1Cl)c1ccccc1F` [Example 63, 2-(2,5-Dichloro-phenoxy)-N-(2-fluoro-phenyl)-N-methyl-nicotinamide], the 50% effective concentration (EC50) turned out to be 170 nM. `CN(C(=O)c1cccnc1Oc1cc(Cl)ccc1Cl)c1c(F)cccc1F` [Example 64, 2-(2,5-Dichloro-phenoxy)-N-(2,6-difluoro-phenyl)-N-methyl-nicotinamide] displayed an EC50 of 155 nM. Consider `CN(C(=O)c1cccnc1Oc1cc(Cl)ccc1Cl)c1ccccc1-n1cccc1` [Example 65, 2-(2,5-Dichloro-phenoxy)-N-methyl-N-(2-pyrrol-1-yl-phenyl)-nicotinamide], for which the EC50 came to 357 nM. Under `CN(C(=O)c1cccnc1Oc1cc(Cl)ccc1Cl)c1ccc(F)cc1F` [Example 66, 2-(2,5-Dichloro-phenoxy)-N-(2,4-difluoro-phenyl)-N-methyl-nicotinamide] stands 518 nM; under `CC1CCc2ccccc2N1C(=O)c1cccnc1Oc1cc(Cl)ccc1Cl` (centres unmarked) [Example 67, [2-(2,5-Dichloro-phenoxy)-pyridin-3-yl]-(2-methyl-3,4-dihydro-2H-quinolin-1-yl)-methanone], 1690 nM; under `Cc1cc(F)c2c(c1)CCCN2C(=O)c1cccnc1Oc1cc(Cl)ccc1Cl` [Example 68, [2-(2,5-Dichloro-phenoxy)-pyridin-3-yl]-(8-fluoro-6-methyl-3,4-dihydro-2H-quinolin-1-yl)-methanone], 837 nM. In the case of `Cc1ccnc(Cl)c1N(C)C(=O)c1cccnc1Oc1cc(Cl)ccc1Cl` [Example 69, N-(2-Chloro-4-methyl-pyridin-3-yl)-2-(2,5-dichloro-phenoxy)-N-methyl-nicotinamide], the EC50 stood at 566 nM. `COc1cccc2c1N(C(=O)c1cccnc1Oc1cc(Cl)ccc1Cl)CCC2` [Example 70, [2-(2,5-Dichloro-phenoxy)-pyridin-3-yl]-(8-methoxy-3,4-dihydro-2H-quinolin-1-yl)-methanone]: a half-maximal response (EC50) required 561 nM. Take `O=C(c1cccnc1Oc1cc(Cl)ccc1Cl)N1CCCc2cc(Cl)ccc21` [Example 71, (6-Chloro-3,4-dihydro-2H-quinolin-1-yl)-[2-(2,5-dichloro-phenoxy)-pyridin-3-yl]-methanone]: a half-maximal response (EC50) required 436 nM. Consider `O=C(c1cccnc1Oc1cc(Cl)ccc1Cl)N1CCOc2ccc(F)cc21` [Example 72, [2-(2,5-Dichloro-phenoxy)-pyridin-3-yl]-(6-fluoro-2,3-dihydro-benzo[1,4]oxazin-4-yl)-methanone], for which a half-maximal response (EC50) required 163 nM. Under `O=C(c1cccnc1Oc1cc(Cl)ccc1Cl)N1CCOc2c(F)cc(F)cc21` [Example 73, [2-(2,5-Dichloro-phenoxy)-pyridin-3-yl]-(6,8-difluoro-2,3-dihydro-benzo[1,4]oxazin-4-yl)-methanone] stands 418 nM. In turn, `O=C(c1cccnc1Oc1cc(Cl)ccc1Cl)N1CCN(c2ccccc2)c2ccccc21` [Example 74, [2-(2,5-Dichloro-phenoxy)-pyridin-3-yl]-(4-phenyl-3,4-dihydro-2H-quinoxalin-1-yl)-methanone] yielded an EC50 of 1530 nM. `COc1ccncc1N(C)C(=O)c1cccnc1Oc1cc(Cl)ccc1Cl` [Example 75, 2-(2,5-Dichloro-phenoxy)-N-(4-methoxy-pyridin-3-yl)-N-methyl-nicotinamide] had an EC50 of 1580 nM. Under `O=C(c1cccnc1Oc1ccc(Cl)cc1Cl)N1CCCc2ccccc21` [Example 76, [2-(2,4-Dichloro-phenoxy)-pyridin-3-yl]-(3,4-dihydro-2H-quinolin-1-yl)-methanone] stands 1960 nM; under `Cc1ccc2c(c1)CCCN2C(=O)c1cccnc1Oc1ccc(F)c(Cl)c1` [Example 77, [2-(3-Chloro-4-fluoro-phenoxy)-pyridin-3-yl]-(6-methyl-3,4-dihydro-2H-quinolin-1-yl)-methanone], 765 nM; under `O=C(c1cccnc1Oc1ccc(F)c(Cl)c1)N1CCCc2ncccc21` [Example 78, [2-(3-Chloro-4-fluoro-phenoxy)-pyridin-3-yl]-(3,4-dihydro-2H-[1,5]naphthyridin-1-yl)-methanone], 128 nM.

The compound `O=C(c1cccnc1Oc1ccc(F)c(Cl)c1)N1CCCc2cc(F)c(F)cc21` [Example 79, [2-(3-Chloro-4-fluoro-phenoxy)-pyridin-3-yl]-(6,7-difluoro-3,4-dihydro-2H-quinolin-1-yl)-methanone] gave an EC50 of 127 nM. For `CC1CCc2ccccc2N1C(=O)c1cc(F)cnc1Oc1cc(Cl)ccc1Cl` (centres unmarked) [Example 80, [2-(2,5-Dichloro-phenoxy)-5-fluoro-pyridin-3-yl]-(2-methyl-3,4-dihydro-2H-quinolin-1-yl)-methanone], the EC50 was determined as 630 nM.

Compound `O=C(c1cc(F)cnc1Oc1cc(Cl)ccc1Cl)N1CCOc2ccccc21` [Example 81, [2-(2,5-Dichloro-phenoxy)-5-fluoro-pyridin-3-yl]-(2,3-dihydro-benzo[1,4]oxazin-4-yl)-methanone] gave an EC50 of 78 nM. Under `O=C1CCCN(C(=O)c2cc(F)cnc2Oc2cc(Cl)ccc2Cl)c2ccccc21` [Example 82, 1-[2-(2,5-Dichloro-phenoxy)-5-fluoro-pyridine-3-carbonyl]-1,2,3,4-tetrahydro-benzo[b]azepin-5-one] stands 1270 nM.
